Laboratory results published in patent EP0489933A1, “BILE ALCOHOL AND DRUG CONTAINING THE SAME AS ACTIVE INGREDIENT” (TSUMURA CO., LTD., priority 1990, dated 1992).

How the values were obtained:
male mice of ddY line = assay: Blood oxygen and carbon dioxide partial pressure; assay type: in vivo; settings: 20 mg/kg, i.p.; blood from abdominal aorta 60 minutes after administration
Method: In this experiment, 4-week-old male mice of ddY line (10 individuals per one group) were used after fasting treatment for 24 hours.
After 60 minutes of the administration of each compound of the present invention, each mouse was subjected to ventrotomy under anesthesia with Nembutal® (Dainabot Co., Ltd.; 50 mg/kg, i.p.) to collect blood from abdominal aorta, and the collected blood sample was immediately checked for its oxygen partial pressure (PO₂) and carbon dioxide partial pressure (PCO₂) using a blood-aerotonometer (Model 170, Ciba-Corning).

[1] = test system: platelet rich plasma (PRP); assay: Platelet aggregation in platelet rich plasma after oral administration; assay type: in vivo, male rat; settings: 30 mg/kg, p.o., blood 90 minutes after administration
Method: Each drug to be tested was orally administered to each male rat which has been subjected to fasting treatment for 18 to 24 hours. After 90 minutes of the administration, median incision ventrotomy was carried out under ether anesthesia to collect 9 volumes of blood using a syringe filled with 1 volume of 3.8% sodium citrate solution (3.8% sodium citrate solution:blood = 1:9). After thorough mixing, the thus prepared mixture was centrifuged at 800 rpm for 10 minutes at room temperature to collect the resulting supernatant fluid as platelet rich plasma (PRP). The residual portion was centrifuged at 3,000 rpm for 15 minutes at room temperature to collect the resulting supernatant fluid as platelet poor plasma (PPP). The PRP was diluted with the PPP to adjust the number of platelets to 3×10⁵ ± 2×10⁴ cells/µl. A 450 µl portion of the thus diluted PRP was incubated at 37°C for 3 minutes and then mixed with 50 µl of 1×10⁻⁵ M of ADP or 1×10⁻⁵ g/ml of collagen. Thereafter, platelet aggregation test of the mixture was carried out using an aggregometer by measuring transmittance at 940 nm.

[2] = Blood plasma clotting time after oral administration; assay type: in vivo, male rats of Wistar line; settings: 30 mg/kg, p.o.; blood collected 90 minutes after administration; calcium chloride, 37°C
Method: In this experiment, 9-week-old male rats of Wistar line (5 to 6 individuals per one group) were used after rearing them for 1 week with normal feed. After 24 hours of fasting, each test drug was administered orally and, 90 minutes thereafter, blood sample was collected from lower abdominal vena cava of each rat under anesthesia with Nembutal® (1 ml/kg, i.p.). Blood samples obtained in this way were checked for their blood clotting time and erythrocyte deformability.
Measuring procedures are as follows.
Blood clotting time ... Collected blood sample is centrifuged at 3,500 rpm for 10 minutes to obtain blood plasma. The blood plasma is pre-incubated for 1 minute in a water bath controlled at 37°C, mixed with calcium chloride and then shaken at 20 second intervals to measure a time required for its clotting.

Qualitative solubility = assay type: physicochemical

SMILES	Carbon Dioxide Partial Pressure (male mice of ddY line)	Oxygen Partial Pressure (male mice of ddY line)	Platelet Aggregation Ratio ±S.E. ([1]; ADP (1×10⁻⁵ M))	Platelet Aggregation Ratio ±S.E. ([1]; Collagen (1×10⁻⁵ g/ml))	Plasma Clotting Time ± S.E. [2]	solubility in H₂O (Qualitative solubility)
CC(CCC1OCC1CO)C1CCC2C3C(O)CC4CC(O)CCC4(C)C3CC(O)C12C [Example 3, (24R)-(25S)-(+)-24,26-epoxy-5β-cholestane-3α,7α,12α,27-tetrol]	45.5 mmHg	86.1 mmHg	42.5 ± 3.81%	42.5 ± 1.85%	195 ± 1.9 s	–
C[C@H](CC[C@H]1OC[C@H]1CO)[C@H]1CC[C@H]2[C@@H]3[C@H](O)C[C@@H]4C[C@H](O)CC[C@]4(C)[C@H]3C[C@H](O)[C@]12C [Example 4, (24R)-(25R)-(+)-24,26-epoxy-5β-cholestane-3α,7α,12α,27-tetrol]	39.1 mmHg	85.3 mmHg	46.1 ± 2.65%	47.7 ± 3.88%	–	insol in H₂O
C[C@H](CC[C@@H](O)C1COC1)[C@H]1CC[C@H]2[C@@H]3[C@H](O)C[C@@H]4C[C@H](O)CC[C@]4(C)[C@H]3C[C@H](O)[C@]12C [Example 5, (24R)-(+)-26,27-epoxy-5β-cholestane-3α,7α,12α,24-tetrol]	39.9 mmHg	87.1 mmHg	48.5 ± 3.31%	48.1 ± 2.65%	–	insol in H₂O
C[C@H](CCCC(CO)CO)[C@H]1CC[C@H]2[C@@H]3[C@H](O)C[C@@H]4C[C@H](O)CC[C@]4(C)[C@H]3C[C@H](O)[C@]12C [Example 6, 3α,7α,12α,26,27-pentahydroxy-5β-cholestane]	40.3 mmHg	83.5 mmHg	50.1 ± 2.33%	42.3 ± 3.83%	–	–
C[C@H](CCCC(CO)CO)[C@H]1CC[C@H]2[C@@H]3[C@H](O)C[C@H]4C[C@H](O)CC[C@]4(C)[C@H]3C[C@H](O)[C@]12C [Example 7, 3α,7α,12α,26,27-pentahydroxy-5α-cholestane]	41.1 mmHg	81.1 mmHg	44.3 ± 2.43%	42.1 ± 3.15%	–	–
C[C@H](CC[C@H](O)C(CO)CO)[C@H]1CC[C@H]2[C@@H]3[C@H](O)C[C@@H]4C[C@H](O)CC[C@]4(C)[C@H]3C[C@H](O)[C@]12C [Example 8, (24S)-3α,7α,12α,24,26,27-hexahydroxy-5β-cholestane]	42.1 mmHg	98.7 mmHg	41.8 ± 1.81%	46.6 ± 3.81%	–	–
C[C@H](CC[C@H](O)[C@@H](C)CO)[C@H]1CC[C@H]2[C@@H]3[C@H](O)C[C@@H]4C[C@H](O)CC[C@]4(C)[C@H]3C[C@H](O)[C@]12C [Example 9, (24S)-(25S)-3α,7α,12α,24,26-pentahydroxy-5β-cholestane]	43.3 mmHg	88.1 mmHg	41.1 ± 1.21%	49.1 ± 1.11%	–	–
C[C@H](CC[C@H](O)[C@H](C)CO)[C@H]1CC[C@H]2[C@@H]3[C@H](O)C[C@@H]4C[C@H](O)CC[C@]4(C)[C@H]3C[C@H](O)[C@]12C [Example 10, (24S)-(25R) 3α,7α,12α,24,26-pentahydroxy-5β-cholestane]	42.6 mmHg	87.5 mmHg	42.2 ± 2.33%	48.3 ± 1.65%	–	–
C[C@H](CC[C@@H](O)[C@@H](C)CO)[C@H]1CC[C@H]2[C@@H]3[C@H](O)C[C@@H]4C[C@H](O)CC[C@]4(C)[C@H]3C[C@H](O)[C@]12C [Example 11, (24R)-(25S)-3α,7α,12α,24,26-pentahydroxy-5β-cholestane]	40.5 mmHg	86.1 mmHg	43.3 ± 2.81%	40.8 ± 1.90%	–	–
C[C@H](CO)[C@H](O)CC[C@@H](C)[C@H]1CC[C@H]2[C@@H]3[C@H](O)C[C@@H]4C[C@H](O)CC[C@]4(C)[C@H]3C[C@H](O)[C@]12C [Example 12, (24R)-(25R)-3α,7α,12α,24,26-pentahydroxy-5β-cholestane]	41.1 mmHg	87.1 mmHg	46.5 ± 5.82%	41.3 ± 3.81%	–	–
C[C@H](CC[C@@H](O)C(CO)CO)[C@H]1CC[C@H]2[C@@H]3[C@H](O)C[C@@H]4C[C@H](O)CC[C@]4(C)[C@H]3C[C@H](O)[C@]12C [Illustrative Example 1, (24R)-(+)-3α,7α,12α,24,26,27-hexahydroxy-5β-cholestane]	41.3 mmHg	98.6 mmHg	50.3 ± 1.32%	43.8 ± 3.99%	–	–
C[C@H](CC[C@@H](O)CCO)[C@H]1CC[C@H]2[C@@H]3[C@H](O)C[C@@H]4C[C@H](O)CC[C@]4(C)[C@H]3C[C@H](O)[C@]12C [Illustrative Example 2, 27-nor-(24R)-(+)-3α,7α,12α,24,26-pentahydroxy-5β-cholestane]	42.1 mmHg	85.4 mmHg	51.5 ± 1.55%	44.4 ± 4.51%	201 ± 4.1 s	–
C[C@H](CC[C@H](O)CCO)[C@H]1CC[C@H]2[C@@H]3[C@H](O)C[C@@H]4C[C@H](O)CC[C@]4(C)[C@H]3C[C@H](O)[C@]12C [Illustrative Example 3, 27-nor-(24S)-(+)-3α,7α,12α,24,26-pentahydroxy-5β-cholestane]	40.8 mmHg	89.9 mmHg	50.3 ± 1.38%	45.5 ± 2.66%	213 ± 5.5 s	–
C[C@H](CCCC(C)(O)CO)[C@H]1CC[C@H]2[C@@H]3[C@H](O)C[C@@H]4C[C@H](O)CC[C@]4(C)[C@H]3C[C@H](O)[C@]12C (stereo partly drawn) [Illustrative Example 4, 5β-cholestane-3α,7α,12α,25,26-pentol]	40.5 mmHg	91.9 mmHg	42.5 ± 1.65%	48.7 ± 2.53%	–	–
CC(C)C(O)CC[C@@H](C)[C@H]1CC[C@H]2[C@@H]3[C@H](O)C[C@@H]4C[C@H](O)CC[C@]4(C)[C@H]3C[C@H](O)[C@]12C (stereo partly drawn) [Illustrative Example 5, 3α,7α,12α,24-tetrahydroxy-5β-cholestane]	41.2 mmHg	88.1 mmHg	44.8 ± 3.62%	49.9 ± 4.85%	–	–
C[C@H](CCCO)[C@H]1CC[C@H]2[C@@H]3[C@H](O)C[C@@H]4C[C@H](O)CC[C@]4(C)[C@H]3C[C@H](O)[C@]12C [Illustrative Example 6, 3α,7α,12α,24-tetrahydroxy-5β-cholan]	40.1 mmHg	89.6 mmHg	43.5 ± 3.26%	47.7 ± 2.58%	–	–
